Literature values, collected in patent US20030190354A1 (priority 2002, published 2003).
Structures can show the parent of a compound that is named as a salt.

Details: 0.2 M sodium chloride

octanol: water partition coefficient: 0.43
Structure (SMILES): COc1ccc(C(CN(C)C)C2(O)CCCCC2)cc1 (racemic) [Venlafaxine hydrochloride, (R/S)-1-[2-(dimethylamino)-1-(4-methoxyphenyl)ethyl] cyclohexanol hydrochloride]
